Experimental data published in patent US5612350A, “Macrocyclic immunomodulators with novel cyclohexyl ring replacements” (Abbott Laboratories, priority 1995, dated 1997).

Test system: human mixed lymphocyte reaction (MLR)
Assay: human mixed lymphocyte reaction (MLR) assay, immunosuppressant activity
Format: cell-based
Conditions: for IC50: Table 1
Method: In Vitro Assay of Biological Activity
The immunosuppressant activity of the compounds of the present invention was determined using the human mixed lymphocyte reaction (MLR) assay described by. T. Kinoet al. in Transplantation Proceedings, XIX(5):36-39, Suppl. 6 (1987).

Row | IC50 | SMILES | inhibition at 1 µM (Table 1, at 1 × 10^-6 (M), read-out: 25% at 1 × 10^-6 (in the IC50 (M) column))
1 | 23 nM | CC[C@@H]1/C=C(\C)C[C@H](C)C[C@H](OC)[C@H]2O[C@@](O)(C(=O)C(=O)N3CCCC[C@H]3C(=O)O[C@H](/C(C)=C/[C@@H](CCO)CCC(=O)NCc3ccccc3)[C@H](C)[C@@H](O)CC1=O)[C@H](C)C[C@@H]2OC [Example 7] | –
2 | 65 nM | CC[C@@H]1/C=C(\C)C[C@H](C)C[C@H](OC)[C@H]2O[C@@](O)(C(=O)C(=O)N3CCCC[C@H]3C(=O)O[C@H](/C(C)=C/[C@@H](CCO)CCC(=O)NCCO)[C@H](C)[C@@H](O)CC1=O)[C@H](C)C[C@@H]2OC [Example 9] | –
3 | 1.1 nM | CC[C@@H]1/C=C(\C)C[C@H](C)C[C@H](OC)[C@H]2O[C@@](O)(C(=O)C(=O)N3CCCC[C@H]3C(=O)O[C@H](/C(C)=C/[C@H]3CCOC(=O)CC3)[C@H](C)[C@@H](O)CC1=O)[C@H](C)C[C@@H]2OC [Example 11] | –
4 | 388 nM | CCCNC(=O)CC[C@@H](/C=C(\C)[C@H]1OC(=O)[C@@H]2CCCCN2C(=O)C(=O)[C@]2(O)O[C@H]([C@@H](OC)C[C@@H](C)C/C(C)=C/[C@@H](CC)C(=O)C[C@H](O)[C@H]1C)[C@@H](OC)C[C@H]2C)CCO [Example 13] | –
5 | – | CC[C@@H]1/C=C(\C)C[C@H](C)C[C@H](OC)[C@H]2O[C@@](O)(C(=O)C(=O)N3CCCC[C@H]3C(=O)O[C@H](/C(C)=C/[C@@H](CCO)CCC(=O)N3CCOCC3)[C@H](C)[C@@H](O)CC1=O)[C@H](C)C[C@@H]2OC [Example 15] | 25%
6 | 0.57 nM | CC[C@@H]1/C=C(\C)C[C@H](C)C[C@H](OC)[C@H]2O[C@@](O)(C(=O)C(=O)N3CCCC[C@H]3C(=O)O[C@H](/C(C)=C/[C@@H]3CCNC(=O)OCC3)[C@H](C)[C@@H](O)CC1=O)[C@H](C)C[C@@H]2OC [Example 37] | –
7 | 37 nM | CC[C@@H]1/C=C(\C)C[C@H](C)C[C@H](OC)[C@H]2O[C@@](O)(C(=O)C(=O)N3CCCC[C@H]3C(=O)O[C@H](/C(C)=C/[C@@H]3CCC(=O)N4CCSC4C3)[C@H](C)[C@@H](O)CC1=O)[C@H](C)C[C@@H]2OC (some centres unmarked) [Example 39] | –
8 | 2.6 nM | CC[C@@H]1/C=C(\C)C[C@H](C)C[C@H](OC)[C@H]2O[C@@](O)(C(=O)C(=O)N3CCCC[C@H]3C(=O)O[C@H](/C(C)=C/C3CCN(C(=O)N4CCOCC4)CC3)[C@H](C)[C@@H](O)CC1=O)[C@H](C)C[C@@H]2OC [Example 56] | –
